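Compound exposure: 48 hours, 5 concentrations, 96-well plates. Abbreviation: GI50, concentration required for 50% inhibition of growth. The concentration for full growth arrest is given as TGI.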
Columns and labels:
Assay in all cases: growth of human tumour cells (NCI), 48 h
[1] = system: CAKI-1 renal
[2] = system: COLO 205 colon
[3] = system: HCC-2998 colon
[4] = system: MALME-3M melanoma
[5] = system: NCI-H460 lung
[6] = system: SF-539 CNS
[7] = system: SK-OV-3 ovarian
[8] = system: HCT-15 colon

With COc1ccc(-c2c3c(nc4n[nH]c(-c5ccc(Cl)cc5)c24)-c2ccccc2C(=O)C3=O)cc1 the GI50 [1] was 1.62 µM, the TGI [1] was 4.38 µM and the GI50 [2] was 1.57 µM. For the same molecule, the TGI [2] was 2.99 µM, the GI50 [3] was 1.73 µM and the TGI [3] was 3.19 µM. It also gave a GI50 [4] of 0.75 µM, a TGI [4] of 2.81 µM and a GI50 [5] of 1.52 µM. It also gave a TGI [5] of 3.24 µM, a GI50 [6] of 1.7 µM and a TGI [6] of 3.47 µM. For the same molecule, the GI50 [7] was 1.68 µM and the TGI [7] was 3.23 µM.

With O=C(CC1C=Cc2ccccc2N1C(=O)c1ccccc1)c1ccccc1 (configuration not stated) the TGI [1] was over 100 µM, the TGI [2] was 42.5 µM and the TGI [8] was over 100 µM. The TGI [4] was 61 µM, the TGI [5] was over 100 µM and the TGI [6] was 66.7 µM. It also gave a TGI [7] of over 100 µM.

In the case of Cc1ccc(-n2nnnc2-c2cnc(N3CCOCC3)nc2-c2cccc(C(F)(F)F)c2)cc1, the GI50 [1] was 1.45 µM, the TGI [1] was 13.2 µM and the GI50 [2] was 1.81 µM. For the same molecule, the TGI [2] was over 13.5 µM, the GI50 [3] was 0.992 µM and the TGI [3] was 2.17 µM. It also gave a GI50 [8] of 3 µM, a TGI [8] of 8.57 µM and a GI50 [5] of 2 µM. For the same molecule, the TGI [5] was over 22.4 µM, the GI50 [6] was 1.16 µM and the TGI [6] was 2.72 µM. For the same molecule, the GI50 [7] was 1.48 µM and the TGI [7] was over 13.3 µM.

With Cc1nc2ccccc2nc1N=Nc1ccccc1 the GI50 [2] was 0.291 µM, the TGI [2] was 1.91 µM and the GI50 [3] was 37 µM. It also gave a TGI [3] of over 100 µM, a GI50 [8] of 16.3 µM and a TGI [8] of over 100 µM. The GI50 [4] was 20.8 µM, the TGI [4] was 65.7 µM and the GI50 [6] was 27.9 µM. The TGI [6] was over 100 µM, the GI50 [7] was 34.9 µM and the TGI [7] was over 100 µM.

CCN1C(=NCCO)NS(=O)(=O)c2ccccc21 gave a TGI [1] of over 100 µM, a TGI [2] of over 100 µM and a TGI [3] of over 100 µM. For the same molecule, the TGI [8] was over 100 µM, the TGI [5] was over 100 µM and the TGI [6] was over 100 µM. It also gave a TGI [7] of over 100 µM.

Cl.Fc1c[c-]c(-c2ccccn2)c(F)c1.[Pt].c1ccc([PH+](C[PH+](c2ccccc2)c2ccccc2)c2ccccc2)cc1 gave a GI50 [1] of 0.266 µM, a TGI [1] of 0.839 µM and a GI50 [6] of 0.244 µM. The TGI [6] was 0.677 µM, the GI50 [7] was 0.293 µM and the TGI [7] was 0.84 µM.

O=C1c2cccnc2C(=O)c2c1c(C(=O)OCCCN1CCCCC1)c1ccccn21 was tested, and the GI50 [1] was under 0.01 µM, the TGI [1] was 0.105 µM and the GI50 [2] was under 0.0128 µM. For the same molecule, the TGI [2] was 0.0303 µM, the GI50 [8] was 0.01 µM and the TGI [8] was 0.422 µM. The GI50 [4] was under 0.0158 µM, the TGI [4] was 0.0682 µM and the GI50 [5] was under 0.01 µM. It also gave a TGI [5] of 0.0122 µM, a GI50 [6] of under 0.0106 µM and a TGI [6] of 0.0435 µM. The GI50 [7] was under 0.01 µM and the TGI [7] was under 0.0199 µM.

CC(=O)/C=C/c1ccc(OCc2ccc(Cl)cc2)cc1 was tested, and the GI50 [2] was 287 µM, the TGI [2] was over 1000 µM and the GI50 [3] was 473 µM. For the same molecule, the TGI [3] was over 1000 µM, the GI50 [8] was 498 µM and the TGI [8] was over 1000 µM. For the same molecule, the GI50 [4] was 330 µM, the TGI [4] was over 1000 µM and the GI50 [5] was 529 µM. For the same molecule, the TGI [5] was over 1000 µM, the GI50 [6] was over 1000 µM and the TGI [6] was over 1000 µM. The GI50 [7] was over 1000 µM and the TGI [7] was over 1000 µM.

For Cc1nc2cc(Nc3nc(Nc4ccc(F)cc4)nc(N4CCOCC4)n3)ccc2n1Cc1ccccc1, the GI50 [1] was 3.89 µM, the TGI [1] was 18.5 µM and the GI50 [2] was 1.84 µM. For the same molecule, the TGI [2] was 3.33 µM, the GI50 [8] was 2.19 µM and the TGI [8] was 5.18 µM. The GI50 [5] was 2.26 µM, the TGI [5] was 5.02 µM and the GI50 [6] was 3.54 µM. It also gave a TGI [6] of 14.5 µM, a GI50 [7] of 10.5 µM and a TGI [7] of 25.1 µM.

Work on O=C1OC(=O)C2C3C=CC(C12)C1C2C=CC2C31 (configuration not stated) yielded a TGI [1] of over 100 µM, a TGI [2] of over 100 µM and a TGI [3] of over 100 µM. It also gave a TGI [4] of over 100 µM, a TGI [5] of over 100 µM and a TGI [6] of over 100 µM. It also gave a TGI [7] of over 100 µM.

For Cc1[nH]c2cc(F)ccc2c1-c1nc2c3cccnc3c3ncccc3c2[nH]1, the GI50 [1] was 0.289 µM, the TGI [1] was 1.19 µM and the GI50 [2] was 0.178 µM. The TGI [2] was 1.26 µM, the GI50 [3] was 0.117 µM and the TGI [3] was 1.3 µM. The GI50 [8] was 0.359 µM, the TGI [8] was 18.8 µM and the GI50 [4] was 0.202 µM. It also gave a TGI [4] of 0.769 µM, a GI50 [5] of 0.322 µM and a TGI [5] of 1.03 µM. For the same molecule, the GI50 [6] was 0.287 µM and the TGI [6] was 1.29 µM.

Molecule COc1ccc(C(=O)c2sc3nc(-c4cccs4)ccc3c2N)cc1OC has a GI50 [1] of 5.29 µM, a TGI [1] of over 100 µM and a GI50 [2] of 5.35 µM. It also gave a TGI [2] of over 100 µM, a GI50 [3] of 26.2 µM and a TGI [3] of over 100 µM. The GI50 [8] was 2.81 µM, the TGI [8] was over 100 µM and the GI50 [5] was 3.88 µM. It also gave a TGI [5] of over 100 µM, a GI50 [6] of 5.32 µM and a TGI [6] of over 100 µM. The GI50 [7] was 51.9 µM and the TGI [7] was over 100 µM.

Work on COC(=O)Cc1cc(=O)[nH]c2c1C(=O)CCC2 yielded a TGI [3] of over 100 µM, a TGI [8] of over 100 µM and a TGI [4] of over 100 µM. For the same molecule, the TGI [5] was over 100 µM, the TGI [6] was over 100 µM and the TGI [7] was over 100 µM.

In the case of COCCOCCOCc1n(Cc2ccc3ccccc3n2)c2ccccc2[n+]1Cc1ccc2ccccc2n1, the GI50 [2] was 0.284 µM, the TGI [2] was 1.5 µM and the GI50 [3] was 0.912 µM. It also gave a TGI [3] of 14.4 µM, a GI50 [8] of 15.8 µM and a TGI [8] of 52 µM. It also gave a GI50 [4] of 0.658 µM, a TGI [4] of 8.67 µM and a GI50 [5] of 1.87 µM. It also gave a TGI [5] of 12.4 µM, a GI50 [6] of 0.852 µM and a TGI [6] of 13.6 µM. The GI50 [7] was 1.79 µM and the TGI [7] was 6.6 µM.

In the case of C=Cn1c([N+](=O)[O-])cnc1/C=C/c1ccc(C(=O)OCCN2CCOCC2)cc1, the TGI [1] was over 100 µM, the TGI [2] was over 100 µM and the TGI [8] was over 100 µM. It also gave a TGI [4] of over 100 µM, a TGI [5] of over 100 µM and a TGI [6] of over 100 µM. It also gave a TGI [7] of over 100 µM.

From PubChem BioAssay (NCI)
